# Measured values: PubChem BioAssay AID1259407 (Chemical Carcinogenesis Research Information System (CCRIS), 2018)
# Calls of active or inactive are those of the source. The rule behind the calls is not given here.
# Tested on: CCRIS mutagenicity, Ames/micronucleus/aberration tests
# Assay: CCRIS mutagenicity studies
# [1] = Test System: AMES SALMONELLA TYPHIMURIUM, Strain/Indicator: TA98, Metabolic Activation: NONE, Method: PREINCUBATION
# [2] = Test System: AMES SALMONELLA TYPHIMURIUM, Strain/Indicator: TA98, Metabolic Activation: NONE, Method: STANDARD PLATE
# [3] = Test System: AMES SALMONELLA TYPHIMURIUM, Strain/Indicator: TA100, Metabolic Activation: NONE, Method: PREINCUBATION
# [4] = Test System: AMES SALMONELLA TYPHIMURIUM, Strain/Indicator: TA100, Metabolic Activation: NONE, Method: STANDARD PLATE
# [5] = Test System: AMES SALMONELLA TYPHIMURIUM, Strain/Indicator: TA102, Metabolic Activation: NONE, Method: PREINCUBATION
# [6] = Test System: AMES SALMONELLA TYPHIMURIUM, Strain/Indicator: TA104, Metabolic Activation: NONE, Method: PREINCUBATION
smiles,measurement,setting,value
O=C(O)c1ccc(O)cc1,mutagenic call,[1],inactive; negative
same,mutagenic call,[2],inactive; negative
same,mutagenic call,"Test System: AMES SALMONELLA TYPHIMURIUM, Strain/Indicator: TA98, Metabolic Activation: RAT LIVER S-9, PHENOBARBITAL AND BETA-NAPHTHOFLAVONE, Method: PREINCUBATION",inactive; negative
same,mutagenic call,[3],inactive; negative
same,mutagenic call,[4],inactive; negative
same,mutagenic call,"Test System: AMES SALMONELLA TYPHIMURIUM, Strain/Indicator: TA100, Metabolic Activation: RAT LIVER S-9, PHENOBARBITAL AND BETA-NAPHTHOFLAVONE, Method: PREINCUBATION",inactive; negative
same,mutagenic call,[5],inactive; negative
same,mutagenic call,"Test System: AMES SALMONELLA TYPHIMURIUM, Strain/Indicator: TA102, Metabolic Activation: RAT LIVER S-9, PHENOBARBITAL AND BETA-NAPHTHOFLAVONE, Method: PREINCUBATION",inactive; negative
same,mutagenic call,[6],inactive; negative
same,mutagenic call,"Test System: AMES SALMONELLA TYPHIMURIUM, Strain/Indicator: TA104, Metabolic Activation: RAT LIVER S-9, PHENOBARBITAL AND BETA-NAPHTHOFLAVONE, Method: PREINCUBATION",inactive; negative
same,mutagenic call,"Test System: AMES SALMONELLA TYPHIMURIUM, Strain/Indicator: TA1535, Metabolic Activation: NONE, Method: PREINCUBATION",inactive; negative
same,mutagenic call,"Test System: AMES SALMONELLA TYPHIMURIUM, Strain/Indicator: TA1535, Metabolic Activation: RAT LIVER S-9, PHENOBARBITAL AND BETA-NAPHTHOFLAVONE, Method: PREINCUBATION",inactive; negative
same,mutagenic call,"Test System: AMES SALMONELLA TYPHIMURIUM, Strain/Indicator: TA1537, Metabolic Activation: NONE, Method: PREINCUBATION",inactive; negative
same,mutagenic call,"Test System: AMES SALMONELLA TYPHIMURIUM, Strain/Indicator: TA1537, Metabolic Activation: RAT LIVER S-9, PHENOBARBITAL AND BETA-NAPHTHOFLAVONE, Method: PREINCUBATION",inactive; negative
same,mutagenic call,"Test System: E. COLI, Strain/Indicator: CM561 LEXA, Metabolic Activation: NONE, Method: STANDARD PLATE",inactive; negative
same,mutagenic call,"Test System: E. COLI, Strain/Indicator: CM611 UVRA/LEXA, Metabolic Activation: NONE, Method: STANDARD PLATE",inactive; negative
same,mutagenic call,"Test System: E. COLI, Strain/Indicator: WP2 UVRA, Metabolic Activation: NONE, Method: STANDARD PLATE",inactive; negative
same,mutagenic call,"Test System: E.COLI, Strain/Indicator: WP2UVRA/PKM101, Metabolic Activation: NONE, Method: PREINCUBATION",inactive; negative
same,mutagenic call,"Test System: E.COLI, Strain/Indicator: WP2UVRA/PKM101, Metabolic Activation: RAT LIVER S-9, PHENOBARBITAL AND BETA-NAPHTHOFLAVONE, Method: PREINCUBATION",inactive; negative
same,mutagenic call,"Test System: E.COLI, Strain/Indicator: WP2UVRA, Metabolic Activation: NONE, Method: PREINCUBATION",inactive; negative
same,mutagenic call,"Test System: E.COLI, Strain/Indicator: WP2UVRA, Metabolic Activation: RAT LIVER S-9, PHENOBARBITAL AND BETA-NAPHTHOFLAVONE, Method: PREINCUBATION",inactive; negative
O=Cc1ccc(Cl)cc1,mutagenic call,[1],inactive; negative
same,mutagenic call,"Test System: AMES SALMONELLA TYPHIMURIUM, Strain/Indicator: TA98, Metabolic Activation: RAT LIVER S-9, PCB, Method: PREINCUBATION",inactive; negative
same,mutagenic call,[3],inactive; negative
same,mutagenic call,"Test System: AMES SALMONELLA TYPHIMURIUM, Strain/Indicator: TA100, Metabolic Activation: RAT LIVER S-9, AROCLOR 1254, Method: PREINCUBATION",inactive; negative
same,mutagenic call,"Test System: AMES SALMONELLA TYPHIMURIUM, Strain/Indicator: TA100, Metabolic Activation: RAT LIVER S-9, PCB, Method: PREINCUBATION",inactive; negative
same,mutagenic call,[5],inactive; negative
same,mutagenic call,"Test System: AMES SALMONELLA TYPHIMURIUM, Strain/Indicator: TA102, Metabolic Activation: RAT LIVER S-9, AROCLOR 1254, Method: PREINCUBATION",inactive; negative
same,mutagenic call,[6],inactive; negative
same,mutagenic call,"Test System: AMES SALMONELLA TYPHIMURIUM, Strain/Indicator: TA104, Metabolic Activation: RAT LIVER S-9, AROCLOR 1254, Method: PREINCUBATION",inactive; negative
same,mutagenic call,"Test System: AMES SALMONELLA TYPHIMURIUM, Strain/Indicator: TA104, Metabolic Activation: RAT LIVER S-9, PCB, Method: PREINCUBATION",inactive; negative
same,mutagenic call,"Test System: E. COLI, Strain/Indicator: WP2 UVRA, Metabolic Activation: NONE, Method: PREINCUBATION",inactive; negative
same,mutagenic call,"Test System: E. COLI, Strain/Indicator: WP2 UVRA, Metabolic Activation: RAT LIVER S-9, PCB, Method: PREINCUBATION",inactive; negative
same,mutagenic call,"Test System: MOUSE LYMPHOMA, Strain/Indicator: L5178Y (TK+/TK-), Metabolic Activation: NONE, Method: SUSPENSION/PLATE",inactive; positive. reevaluation of results: negative
same,mutagenic call,"Test System: Mouse lymphoma, Strain/Indicator: L5178Y (tk+/tk-), Metabolic Activation: Rat, Liver, S-9, Aroclor 1254, Method: Suspension/plate",inactive; negative
C#C[C@]1(O)CC[C@H]2[C@@H]3CCc4cc(OC)ccc4[C@H]3CC[C@@]21C,mutagenic call,"End Point: IN VITRO CHROMOSOMAL ABERRATIONS, Test System: HUMAN PERIPHERAL LYMPHOCYTES, Metabolic Activation: NONE",active; positive (total aberrations excluding gaps); positive at higher dose levels
same,mutagenic call,"End Point: IN VIVO CHROMOSOMAL ABERRATIONS, Test System: BONE MARROW CELLS, Species: MOUSE, Strain/Sex: SWISS/MALE, Route: IP INJECTION (ONCE)",active; positive
same,mutagenic call,"End Point: IN VIVO MICRONUCLEUS, Test System: BONE MARROW POLYCHROMATIC ERYTHROCYTES, Species: MOUSE, Strain/Sex: SWISS/MALE, Route: IP INJECTION (SINGLE DOSE)",active; positive
same,mutagenic call,"Test System: AMES SALMONELLA TYPHIMURIUM, Strain/Indicator: TA97A, Metabolic Activation: NONE, Method: STANDARD PLATE",inactive; negative
same,mutagenic call,"Test System: AMES SALMONELLA TYPHIMURIUM, Strain/Indicator: TA97A, Metabolic Activation: RAT, LIVER, S-9, PHENOBARBITONE, Method: PREINCUBATION",inactive; negative
same,mutagenic call,[2],inactive; negative
same,mutagenic call,"Test System: AMES SALMONELLA TYPHIMURIUM, Strain/Indicator: TA98, Metabolic Activation: RAT, LIVER, S-9, PHENOBARBITONE, Method: PREINCUBATION",inactive; negative
same,mutagenic call,[4],inactive; negative
same,mutagenic call,"Test System: AMES SALMONELLA TYPHIMURIUM, Strain/Indicator: TA100, Metabolic Activation: RAT, LIVER, S-9, PHENOBARBITONE, Method: PREINCUBATION",inactive; negative
same,mutagenic call,"Test System: AMES SALMONELLA TYPHIMURIUM, Strain/Indicator: TA1535, Metabolic Activation: NONE, Method: STANDARD PLATE",inactive; negative
same,mutagenic call,"Test System: AMES SALMONELLA TYPHIMURIUM, Strain/Indicator: TA1535, Metabolic Activation: RAT, LIVER, S-9, PHENOBARBITONE, Method: PREINCUBATION",inactive; negative
same,mutagenic call,"Test System: HOST-MEDIATED ASSAY WITH SALMONELLA, Strain/Indicator: TA97A, Metabolic Activation: MALE SWISS MOUSE, SALMONELLA ADMINISTERED 4 HR AFTER 2ND INJECTION: SACRIFICE 2 HR LATER, Method: 2 INJECTIONS AT 12 HR INTERVAL",inactive; negative
same,mutagenic call,"Test System: HOST-MEDIATED ASSAY WITH SALMONELLA, Strain/Indicator: TA98, Metabolic Activation: MALE SWISS MOUSE, SALMONELLA ADMINISTERED 4 HR AFTER 2ND INJECTION: SACRIFICE 2 HR LATER, Method: 2 INJECTIONS AT 12 HR INTERVAL",inactive; negative
same,mutagenic call,"Test System: HOST-MEDIATED ASSAY WITH SALMONELLA, Strain/Indicator: TA100, Metabolic Activation: MALE SWISS MOUSE, SALMONELLA ADMINISTERED 4 HR AFTER 2ND INJECTION: SACRIFICE 2 HR LATER, Method: 2 INJECTIONS AT 12 HR INTERVAL",inactive; negative
same,mutagenic call,"Test System: HOST-MEDIATED ASSAY WITH SALMONELLA, Strain/Indicator: TA1535, Metabolic Activation: MALE SWISS MOUSE, SALMONELLA ADMINISTERED 4 HR AFTER 2ND INJECTION: SACRIFICE 2 HR LATER, Method: 2 INJECTIONS AT 12 HR INTERVAL",inactive; negative
